Data from article PMC9136617 (Acta Pharmaceutica Sinica. B, 2022).

How the values were obtained:
CYP2E1 = CYP2E1 (Homo sapiens, UniProt P05181); experiment: incubation with recombinant human CYP2E1, metabolites by LC–MS/MS; assay type: biochemical
PPARα = biological target: T1, PPARα (Homo sapiens, UniProt Q07869); experiment: SPR; assay type: binding
T1 sequence (Q07869 1-468): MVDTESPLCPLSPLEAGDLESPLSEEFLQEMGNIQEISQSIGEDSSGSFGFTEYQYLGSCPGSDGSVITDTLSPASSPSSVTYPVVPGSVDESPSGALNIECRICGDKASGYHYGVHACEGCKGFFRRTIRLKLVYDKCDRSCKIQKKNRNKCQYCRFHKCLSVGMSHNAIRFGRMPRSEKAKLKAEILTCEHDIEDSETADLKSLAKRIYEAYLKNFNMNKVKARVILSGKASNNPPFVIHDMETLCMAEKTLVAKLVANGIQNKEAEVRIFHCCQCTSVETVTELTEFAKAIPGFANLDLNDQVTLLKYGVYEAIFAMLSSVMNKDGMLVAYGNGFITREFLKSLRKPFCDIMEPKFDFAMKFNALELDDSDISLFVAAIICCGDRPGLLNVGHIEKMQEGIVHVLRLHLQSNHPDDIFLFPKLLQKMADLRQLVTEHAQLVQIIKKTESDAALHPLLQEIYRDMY

Sequence of CYP2E1 (P05181 whole entry): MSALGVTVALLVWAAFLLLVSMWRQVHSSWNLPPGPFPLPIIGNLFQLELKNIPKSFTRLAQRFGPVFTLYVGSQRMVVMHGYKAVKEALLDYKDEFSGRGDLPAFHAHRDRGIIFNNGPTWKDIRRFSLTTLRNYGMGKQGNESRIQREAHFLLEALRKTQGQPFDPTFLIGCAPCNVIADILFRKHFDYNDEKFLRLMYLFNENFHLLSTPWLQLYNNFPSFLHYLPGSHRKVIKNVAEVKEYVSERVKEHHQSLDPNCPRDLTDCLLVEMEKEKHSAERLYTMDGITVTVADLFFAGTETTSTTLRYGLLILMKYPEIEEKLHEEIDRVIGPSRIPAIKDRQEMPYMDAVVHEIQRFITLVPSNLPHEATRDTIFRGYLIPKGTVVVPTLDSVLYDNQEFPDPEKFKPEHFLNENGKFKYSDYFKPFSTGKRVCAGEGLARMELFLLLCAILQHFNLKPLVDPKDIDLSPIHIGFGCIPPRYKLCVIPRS

CC/C=C\C/C=C\C/C=C\C/C=C\C/C=C\C/C=C\CCC(=O)O [DHA, docosahexaenoic acid]
incubation with recombinant human CYP2E1, metabolites by LC-MS/MS (CYP2E1): All the compounds were metabolized by recombinant CYP2E1 and their metabolites identified by LC–MS/MS | Kd (PPARα): 14.3 µM

CCCCC/C=C\C/C=C\C/C=C\C/C=C\CCCC(=O)O [AA, arachidonic acid]
incubation with recombinant human CYP2E1, metabolites by LC-MS/MS (CYP2E1): All the compounds were metabolized by recombinant CYP2E1 and their metabolites identified by LC–MS/MS | Kd (PPARα): 16.1 µM

CCCCC/C=C\C/C=C\CCCCCCCC(=O)O [LCA, 9,12-linoleic acid]
incubation with recombinant human CYP2E1, metabolites by LC-MS/MS (CYP2E1): metabolic sites on LCA by recombinant CYP2E1 protein were at C-6 to C-10, C-16, and C-17 | Kd (PPARα): 23.8 µM
